Test results published in US20240261310A1, “APPLICATION OF ALGINATE OLIGOSACCHARIDES” (HAITANG (JIANGSU) BIOTECHNOLOGY COMPANY, LTD., priority 2021, published 2024).

What was measured:
[1] = system: rats with AKI induced by renal ischemia-reperfusion (I/R) injury; test: Rat acute kidney injury (AKI) induced by ischemia-reperfusion (I/R); type: in vivo; conditions: for level of serum creatinine / 24-hour urine output: Sprague Dawley rats, intragastric; for level of serum creatinine: 24 h after I/R; for mRNA levels of Kim-1 and NGAL in kidney tissues / inflammatory factors in kidney tissues (TLR4, p-NFκB/NFκB, pro-IL-1β/IL-1β): renal cortex; for mRNA levels of Kim-1 and NGAL in kidney tissues: 0.1 g/kg/day intragastric; for inflammatory factors in kidney tissues (TLR4, p-NFκB/NFκB, pro-IL-1β/IL-1β): western blotting, doses 0.01, 0.05, 0.1 g/kg/day, dose dependent
Text: Ischemia-reperfusion induced kidney injury is a classical animal model that simulates the acute kidney injury caused by clinical hypoperfusion. With the rat ischemia-reperfusion model, the author of the invention administered the alginate oligosaccharides with a uniform degree of polymerization as prepared by Example 1-3 and a mixture thereof, and then carried out comparison with a blank group and a non-administrated model group to investigate the therapeutic effects of the several alginate oligosaccharides with a uniform degree of polymerization.
30 male Sprague Dawley rats (purchased from the Laboratory Animal Center of Sun Yat-sen University) of 220-250 grams were selected. Before treatment, the 24-hour urine output was collected and measured without abnormalities. The rats to be modeled were randomly divided into the following groups: a sham group, a model group, and three alginate disaccharide groups with the doses of 0.01 g/kg/day, 0.05 g/kg/day and 0.1 g/kg/day respectively (6 rats in each group). In the present invention, the alginate disaccharide is abbreviated as “AOS2”. Intragastric administration was adopted, and rats in the model group and the sham group were all fed by gavage with the same volume of normal saline. On the day of operation, the rats were anesthetized intraperitoneally with 3% pentobarbital sodium and subjected to routine skin disinfection. The abdomen was sectioned to expose the left and right kidneys. In the sham group, the kidneys were only examined, and then the incision was sutured layer by layer to end the operation. In the model group and the modeled administration group, large bulldog clamps were used for occlusion of the renal pedicles on both sides, then the kidneys were recovered in place, and the incision was covered with gauze and dropwise added with a small amount of normal saline for rehydration. After 45 minutes, the bulldog clamps on both sides were released, and the incision was sutured layer by layer to end the operation. After operation, the rats were placed on a heating pad at 37° C. to wait for resuscitation, and then placed back into metabolic cages, in which the weight, food intake, water intake and urine output of the rats were measured. The rats were routinely fed after operation and sacrificed 24 hours later for sampling. […] Then, the serum creatinine in the rats was determined by using the creatinine assay kit from Nanjing Jiancheng, with the results shown in FIG. 10. During sampling, the kidneys on both sides were isolated, the cortex and inner medulla of each kidney were isolated, and the cortex was stored in trizol. When in use, mRNAs in the cortex were extracted using the trizol method, and the mRNA expressions of AKI biomarkers (KIM-1 and NGAL) were detected. A tissue lysis buffer was added to homogenize the kidneys by ultrasound, the total protein was then extracted, and the inflammatory factors (p-NFκB/NFκB and pro-IL-1β/IL-1β) in the renal cortex tissues were detected by western blotting. The experimental data were statistically analyzed by one-way ANOVA.
With the same experimental method as that for the alginate disaccharides, the effect of alginate trisaccharides against the rat acute kidney injury induced by ischemia-reperfusion was investigated. In the present invention, the alginate trisaccharide is abbreviated as “AOS3”. The serum creatinine in the rats was determined by using the creatinine assay kit from Nanjing Jiancheng, with the results shown in FIG. 14. During sampling, the kidneys on both sides were isolated, the cortex and inner medulla of each kidney were isolated, and the cortex was stored in trizol. When in use, mRNAs in the cortex were extracted using the trizol method, and the mRNA expression of AKI biomarkers (KIM-1 and NGAL) was detected. […]

[2] = system: mice with AKI induced by cisplatin; test: Mouse acute kidney injury induced by cisplatin; type: in vivo
Text: Cisplatin-induced kidney injury is a classical and standard animal model that simulates the acute kidney injury induced by drugs that cause nephrotoxicity. With the mouse cisplatin model, we administered the alginate oligosaccharides with different uniform degrees of polymerization and a mixture thereof, and then compared with a blank group and a non-administrated model group to investigate the therapeutic effects of the individual alginate oligosaccharides with a uniform degree of polymerization.
30 male C57BL/J6 mice of 22-28 grams were selected. Before treatment, the 24-hour urine output was collected and measured without abnormalities. The mice to be modeled were randomly divided into the following groups: a control group, a model group, a model+low-dose administration group (AOS3 at 0.05 g/kg/day), a model+medium-dose administration group (AOS3 at 0.1 g/kg/day), and a model+high-dose administration group (AOS3 at 0.2 g/kg/day), with 6 mice in each group. The alginate trisaccharides was intragastrically administered, and the model group and the control group were all fed by gavage with the same volume of normal saline. Cisplatin was used to induce the drug toxin-associated acute kidney injury. During modeling, each model group was intraperitoneally injected with cisplatin at 20 mg/kg, and the control group was intraperitoneally injected with the same volume of normal saline. Immediately after modeling, the mice were put back into the mouse metabolic cages for observation, during which the weight, food intake, water intake and urine output of the mice were measured (see FIG. 37 for the results). The mice were sacrificed 72 hours later for sampling, and urine was collected. […] Then, the serum creatinine in the mice was determined by using the creatinine assay kit from Nanjing Jiancheng, with the results shown in FIG. 36. During sampling, the kidneys on both sides were isolated, the cortex and inner medulla of each kidney were isolated, and the cortex was stored in trizol. When in use, mRNAs in the cortex were extracted using the trizol method, and the mRNA expressions of AKI biomarkers (KIM-1 and NGAL, with the results shown in FIG. 38) were detected by the Qpcr method. A tissue lysis buffer was added to homogenize the kidneys by ultrasound, the total protein was then extracted, and the inflammatory factors (p-NFκB/NFκB and IL-1β) in the renal cortex tissues were detected by western blotting. The experimental data were statistically analyzed by one-way ANOVA.

[3] = three doses 0.01, 0.05, 0.1 g/kg/day, vs I/R model group
[4] = 0.1 g/kg/day, vs cisplatin model group

Row | Substance | level of serum creatinine ([1]; 0.1 g/kg/day) | level of serum creatinine [1, 3] | 24-hour urine output [1, 3] | mRNA levels of Kim-1 and NGAL in kidney tissues ([1]; vs I/R model group) | inflammatory factors in kidney tissues (TLR4, p-NFκB/NFκB, pro-IL-1β/IL-1β) [1] | expressions of inflammatory factors [2, 4] | level of serum creatinine [2, 4] | levels of kidney injury factors (KIM-1 and NGAL) [2, 4] | 24-hour urine output ([1]; 0.1 g/kg/day) | renal histopathological manifestations ([1]; HE staining, 0.1 g/kg/day) | level of serum creatinine ([2]; C57BL/J6 mice, cisplatin 20 mg/kg i.p., intragastric 0.05, 0.1, 0.2 g/kg/day, 72 h) | mRNA levels of Kim-1 and NGAL in kidney tissues ([2]; renal cortex, Qpcr, vs cisplatin model group) | protein expressions of renal inflammatory factors (TLR4, p-NFκB/NFκB, IL-1β) ([2]; renal cortex, western blotting, vs cisplatin model group) | urine output ([2]; three doses 0.05, 0.1, 0.2 g/kg/day, 24 h to 72 h, dose dependent)
1 | alginate disaccharide sodium salt [AOS2] | basically return to a normal level | decreased significantly | decreased somewhat | significantly reduced the expressions of both markers | reduced the production of inflammatory factors | decreased significantly | decreased significantly | decreased significantly |  |  |  |  |  | 
2 | alginate tetrasaccharide sodium salt [AOS4] | restore to a normal level | decreased significantly | somewhat reduced | significantly reduce both markers | significantly reduce the production of inflammatory factors | decreased significantly | decreased significantly | decreased significantly | obviously better than that of the mixed saccharides |  |  |  |  | 
3 | alginate trisaccharide sodium salt [AOS3] | basically return to a normal level | decreased significantly | somewhat decreased | significantly reduced the expressions of both markers | reduce the production of inflammatory factors | decreased significantly | decreased significantly | decreased significantly | basically recovered to the normal level | the renal tubules showed mild lesions | decreased significantly and could basically return to a normal level | significantly reduced | significantly reduced the production of the inflammatory factors | first somewhat decreased and then became normal
